This is an account of results in patent US8415152B2, “Therapeutical composition containing dentritic cells and use thereof” (Helmholtz-Zentrum für Infektionsforschung GmbH, priority 2003, dated 2013).

One assay concerns autologous lymphocytes. Description: Proliferation assay (3H-thymidine) in coculture of DC and autologous lymphocytes. In kind it is cell-based, human. As to conditions: DC of allergics, allergen pulsed, 3H-thymidine day 12 for 18 hours. The procedure: A portion of DC was used for coculture experiments with autologous lymphocytes from day 7 to day 13. To remove free stimulants, DC were harvested and washed twice. The cells were titrated in fresh medium in fresh round-bottom microtiterplates. 1×10^5 vital cryopreserved autologous lymphocytes were added at ratios of DC to lymphocytes from 1:3 to 1:2187 in a final volume of 200 μl in serum-free XVIVO-15. No further stimulants were given.
The coculture was pulsed with 5 μCi/ml ^3H-thymidine (Amersham Buchler, Braunschweig, Germany) on day 12. After 18 hours, the cells were harvested on filtermats (Canberra-Packard, Dreieich, Germany). After drying, 20 μl of liquid scintillator (Can berra-Packard) were added and the plates were sealed. Counts per minute were determined on a Topcount Microplate Scintillation Counter (Can berra-Packard).

For assay [1], the system named is Balb/c mice. Kind of assay: Cytokines in BALF of OVA-sensitized and challenged mice (ELISA). It is filed as in vivo, mouse. As to conditions: i.t. treatment day 27 (20 ng MALP-2, 10^4 U IFN-γ); 24 h after last allergen challenge. Here is the method: Female Balb/c mice (Charles River, Sulzfeld, Germany) were used at the age of 6-8 weeks In all experiments. They were fed with ovalbumin-free laboratory food and tap water ad libitum and held in a regular 12 h dark/light cycle at a temperature of 22° C. Before experimental start, mice were acclimated for a period of 7 days.
(§1) Animals were sensitized and challenged as previously described (Glaab, T., A. Daser, A. Braun, U. Neuhaus-Steinmetz, H. Fabel, Y. Alarie, and H. Renz. 2001. Am. J. Physiol Lung Cell Mol. Physiol 280:L565-L573). Briefly, 10 μg ovalbumin (OVA, grade VI, Sigma, Müchen, Germany) was adsorbed to 1 mg Imject Alum (Pierce, Rockford, USA) in a total volume of 200 μl 0.9% NaCl solution and intraperitonealy injected three times on days 0, 14 and 21. Negative controls were injected with the solution lacking ovalbumin. All groups were subjected to inhalative allergen challenge on days 28 and 29. OVA-aerosols (grade V, Sigma) with a mean mass diameter of 1.49 μm were generated from a solution of 1 mg/ml OVA in 0.9% NaCl using a modified Pad Master system (Pari Werke, Sternberg, Germany) for 20 min. A lung deposition of approximately 8 μg OVA per mice in each session was calculated by a respiratory minute volume of 35 ml/min an a deposition factor of 0.15 as brought forward by Raabe et al. (Raabe, O. G., J. E. Bennick, M. E. Light, C. H. Hobbs, R. L. Thomas, and M. I. Tillery. 1973. Toxicol. Appl. Pharmacol. 26:264-273). 3 gives the test groups.
(§2) The trachea was canulated under direct vision, and a total volume of 50 μl containing the substances was instillated using a syringe.
(§3) Mice were killed with an i.p. injected overdose of pentobarbital-Na (Menial, Halbergmoos, Germany) after the lung function. In a satellite group, mice were left untouched after the last allergen challenge and kept for another 7 days. Afterwards, they were dissected in the same way as the main groups as follows. Blood was obtained via punction of the vena cava. Red blood cells were lysed by incubation with 0.9% NH4Cl (Sigma) in H2O for 10 min, white blood cells were automatically counted using an AcT8 counter (Beckman Coulter, Krefeld, Germany) and cytospins were prepared for differential cell count. The trachea was canulated and broncho-alveolar lavage (BAL) was performed with 0.8 ml ice cold saline two times. BAL cells were separated by centrifugation, counted and cytospins were prepared as described above. The BAL fluid (BALF) was aliquoted, shock frozen in liquid nitrogen and stored at −80° C. until the determination of cytokines. After BAL, the lungs were filled with Tissue-Tek O.C.T. (Sakura Finetek, Zoeterwoude, Netherlands) diluted 1:2 in PBS and the trachea was ligated. Next, the right lungs were excised, subsequently shock frozen in liquid nitrogen and stored at −80° C. for histology.
Duo-Set ELISA kits for the detection of IL-4, IL-5, IL-13 and IL-12p70 in the BAL supernatant were used (R&D Systems, Wiesbaden, Germany) according to the manufacturer's instructions.
In general terms: An ELISA detects its analyte on a solid surface through an enzyme-linked reagent.

Assay [2] deals with Balb/c mice. Kind of assay: Differential cell count of BAL and blood, OVA-sensitized mice. It is filed as in vivo, mouse. As to conditions: i.t. treatment day 27; 24 h after last allergen challenge. The procedure:
as §1, §2, §3
Cytospins were stained applying the Pappenheim method according to standard protocols. […] 300 cells of each sample were determined, and absolute counts of macrophages, lymphocytes, eosinophilic and neutrophilic granulocytes were calculated.

For assay [3], the system named is Balb/c mice. Description: Lung function measurement: airway hyperreactivity to methacholine, head-out body plethysmography. It is filed as in vivo, mouse. As to conditions: OVA-sensitized mice, 72 h after i.t. treatment, 24 h after last allergen challenge; mean±SEM. The procedure:
as §1, with “OVA-aerosols (grade V, Sigma) with a mean mass diameter of 1.49 μm were generated from a solution of 1 mg/ml OVA in 0.9% NaCl using a modified Pad Master system (Pari Werke, Sternberg, Germany) for 20 min.” left out, “3 gives the test groups.” left out
24 hours after the last allergen challenge, airway hyperreactivity to methacholine (Mch) was determined in non-anaesthesized spontaneously breathing animals using head-out body plethysmography, as described before (Glaab, T., A. Daser, A. Braun, U. Neuhaus-Steinmetz, H. Fabel, Y. Alarie, and H. Renz. 2001. Am. J. Physiol Lung Cell Mol. Physiol 280:L565-L573). […] Respiratory signals were analyzed using the Hem 3.4 system (Notocord systems S. A., Crossy-sur-Seine, F).

Consider “IFN-γ: interferon gamma, IFNγ receptor agonist (Strathmann Biotec)”, for which, in the assay with autologous lymphocytes, the “Lymphocyte proliferation” value is listed as “increased proliferation”. In addition, in the assay with Balb/c mice [1], the “IL-4 in BALF” value was “did not affect IL-4”; the “IL-5 and IL-13 in BALF” value is “reduced the levels of IL-5 and IL-13”; the “IL-12p70 in BALF” value is “failed to induce IL-12p70”. Besides, in the assay with Balb/c mice [2], the “Eosinophils in BAL” value is “raised the eosinophil counts even further” and the “Number of BAL lymphocytes” value was “increased”. Moreover, the “ED50: concentration of Mch needed to decrease the EF50 to 50% of baseline” value with Balb/c mice [3] is 17.67±3.05 mg/ml Mch.

Regarding “macrophage activating lipopeptide-2 [MALP-2, reference compound]”, the “Lymphocyte proliferation” value in the assay with autologous lymphocytes is “exceeded by MALP-2”. In addition, in the assay on Balb/c mice [1], the “IL-4 in BALF” value is reported as “reduce all Th2-markers to the level of the unsensitized negative control”; the “IL-5 and IL-13 in BALF” value is “reduce all Th2-markers to the level of the unsensitized negative control”; the “IL-12p70 in BALF” value was “did not amplify IL-12p70”. Moreover, in the assay with Balb/c mice [2], the “Eosinophils in BAL” value was “raised the eosinophil counts even further” and the “Number of BAL lymphocytes” value is “increased”. Moreover, the “ED50: concentration of Mch needed to decrease the EF50 to 50% of baseline” value in the assay on Balb/c mice [3] came out at 20.13±1.36 mg/ml Mch.
